Molecules are shown by their SMILES. In brackets after ≈: the same amount, converted by molar mass.

Experiment [1] has as its system Candida albicans (RCMB 05036). The experiment in a line: Well diffusion assay (inhibition zone). It counts as cell-based. Particulars: RCMB05036, 5 mg/mL in DMSO, fungi, read-out: Inhibition Zone (IZ) diameter, C.A. The method, boiled down: (§1)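 Agar well diffusion with 10 mm wells, nutrient agar for bacteria and malt extract agar for fungi. Plates were incubated 24-48 h at 37 °C for bacteria or 28 °C for fungi. Inhibition zone diameters were measured in mm, in triplicate.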

Experiment [2] has as its system Candida albicans (RCMB 05036). The experiment in a line: MIC by serial dilution method. The experiment is classed as cell-based. Conditions: RCMB05036, fungi, read-out: Minimum inhibitory concentration, MIC, C.A. In outline: (§2)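 Step one: agar diffusion well assay for antibacterial and antifungal activity. Step two: serial dilution to obtain […] minimum inhibitory concentrations, run alongside ampicillin, ciprofloxacin, gentamicin and amphotericin B as positive controls.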

Experiment [3] relates to Pseudomonas aeruginosa (RCMB 010043). The experiment in a line: Well diffusion assay (inhibition zone). The experiment is classed as cell-based. Conditions: RCMB010043, 5 mg/mL in DMSO, Gm-ve, read-out: Inhibition Zone (IZ) diameter, P.A. In outline: as §1
(Agar diffusion results depend on both activity and mobility in agar.)

For experiment [4] the test system is unchanged. The experiment in a line: MIC by serial dilution method. It counts as cell-based. Conditions: RCMB010043, Gm-ve, read-out: Minimum inhibitory concentration, MIC, P.A. The method, boiled down: as §2
The subject of a further experiment is caspase-3 and -7. The experiment in a line: Caspase-Glo 3/7 caspase activity assay. The experiment is classed as cell-based, human. Particulars: compared to control and doxorubicin; MCF-7 and HCT-116; compounds at IC50 concentration, 48 h. The method, then:
To measure caspase-3 and -7 activities, a luminescent Caspase-Glo 3/7 assay was performed. HCT116 and MCF-7 cells were seeded onto black 96-well plates at a density of 3,500 cells/well. […] After 48 h a Caspase-Glo 3/7 Assay (Promega) was performed according to the manufacturer's instructions. After adding 100 μL of Caspase 3/7 Glo Reagent, cells were incubated for 2.5 h at room temperature. The luminescence was measured using a multi-plate reader (Synergy 4, BioTek) with an integration time of 1 second per well. The values are the means ± SD of three sets of experiments.
The initial reported assay of 4-aryl-4H-chromene series were identified as apoptosis inducers via caspase activation (Elinson et al., 2010[20]; Sondhi et al., 2010[58]; Thareja et al., 2010[60]; Trinchieri, 2015[61]). Furthermore, it was important to investigate the antiproliferative effect of the novel synthesized compounds 4a, 4b, and 4c using caspase-3 and -7 activities compared to doxorubicin and vehicle control drug in the corresponding cancer cell lines MCF-7 and HCT-116.

As to `N#CC1=C(N)Oc2c(N)cc3ccccc3c2C1c1ccc(F)cc1` (stereo not drawn) [4a, 3,5-diamino-1-(4-fluorophenyl)-1H-benzo[f]chromene-2-carbonitrile], the zone of inhibition at 5000 µg/mL in experiment [1] came out at 9.4 mm. In addition, the MIC in experiment [2] is 125 µg/mL (≈ 377 µM).

In the case of `N#CC1=C(N)Oc2c(N)cc3ccccc3c2C1c1ccc(Cl)cc1` (stereo not drawn) [4b, 3,5-diamino-1-(4-chlorophenyl)-1H-benzo[f]chromene-2-carbonitrile], in experiment [3], the zone of inhibition at 5000 µg/mL was 13.1 mm. Further, the MIC in experiment [4] turned out to be 125 µg/mL (≈ 359 µM). Also, the “elevation in the caspase activity” value in the experiment with caspase-3 and -7 is recorded as 2-3 folds.

Regarding `Cc1ccc(C2C(C#N)=C(N)Oc3c(N)cc4ccccc4c32)cc1` (stereo not drawn) [4c, 3,5-diamino-1-(p-tolyl)-1H-benzo[f]chromene-2-carbonitrile], the “elevation in the caspase activity” value with caspase-3 and -7 is 2-3 folds.

These data come from paper PMC5547389, “Structure-activity relationships and molecular docking studies of chromene and chromene based azo chromophores: A novel series of potent antimicrobial and anticancer agents” (EXCLI Journal, 2017).
